One assay has as its target human Gal-3 (hGal-3) (Homo sapiens (Human), UniProt P17931). As to the kind of experiment: Competitive binding assay: binding of biotinylated hGal-3 to microplate-adsorbed asialofetuin (ASF). Particulars: Activity on hGal-3; mean values of several measurements. Summed up:
(§1)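 Spectrophotometric readout (streptavidin-peroxidase, ABTS) of biotinylated galectin retained on ASF-coated wells. Biotinylated hGal-1 or hGal-3, 300-1000 ng/mL, co-incubated with test compound 3 h at 4° C, then washed. Mean IC50 from repeat runs.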

The target in another assay is human Gal-1 (hGal-1). As to the kind of experiment: Competitive binding assay: binding of biotinylated hGal-1 to microplate-adsorbed asialofetuin (ASF). Conditions: Activities on hGal-1; mean values of several measurements. Summed up: as §1
human Gal-1 (hGal-1), sequence (P09382 2-135 limits assumed): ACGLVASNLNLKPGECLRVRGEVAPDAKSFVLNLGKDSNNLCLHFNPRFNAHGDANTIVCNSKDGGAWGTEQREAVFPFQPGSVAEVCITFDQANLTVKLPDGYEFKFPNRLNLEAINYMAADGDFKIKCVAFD

pIC50: −log10 of the molar value.

human Gal-3 (hGal-3), sequence (P17931 whole entry): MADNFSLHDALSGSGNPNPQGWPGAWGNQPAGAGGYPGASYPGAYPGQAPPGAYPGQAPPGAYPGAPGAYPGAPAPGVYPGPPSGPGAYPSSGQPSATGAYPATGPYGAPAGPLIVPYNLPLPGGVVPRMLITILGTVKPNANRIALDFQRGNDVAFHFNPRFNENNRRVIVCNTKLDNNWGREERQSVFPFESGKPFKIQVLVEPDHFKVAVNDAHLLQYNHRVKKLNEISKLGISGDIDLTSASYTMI

For `CO[C@@H]1[C@@H](n2cc(-c3ccc(Br)c(F)c3F)nn2)[C@@H](O)[C@@H](CO)O[C@@H]1Cc1cc(C(C)(C)C)on1` [Ex 1.191], the values for the pIC50 on human Gal-3 (hGal-3) and on human Gal-1 (hGal-1) were 6.82 and 5.44, respectively.
The matching figures for `CO[C@@H]1[C@@H](n2cc(-c3ccc(Cl)c(F)c3)nn2)[C@@H](O)[C@@H](CO)O[C@@H]1Cc1cc(C(C)(C)C)on1` [Ex 1.192]: 6.70 and 5.73.
For `CO[C@@H]1[C@@H](n2cc(-c3ccc(F)c(F)c3F)nn2)[C@@H](O)[C@@H](CO)O[C@@H]1Cc1cc(C(C)(C)C)on1` [Ex 1.193], in that order: 6.92 and 5.90.
For `CO[C@@H]1[C@@H](n2cc(-c3cc(F)c(Cl)c(F)c3)nn2)[C@@H](O)[C@@H](CO)O[C@@H]1Cc1cc(C(C)(C)C)on1` [Ex 1.194], in that order: 6.74 and 5.45.
For `CO[C@@H]1[C@@H](n2cc(-c3ccc(C)c(F)c3F)nn2)[C@@H](O)[C@@H](CO)O[C@@H]1Cc1cc(C(C)(C)C)on1` [Ex 1.195], the pIC50 is 7.22 at human Gal-3 (hGal-3) and 5.48 at human Gal-1 (hGal-1).
For the compound `CO[C@@H]1[C@@H](n2cc(-c3cc(F)cc(Cl)c3)nn2)[C@@H](O)[C@@H](CO)O[C@@H]1Cc1cc(C(C)(C)C)on1` [Ex 1.196], the pIC50 at human Gal-3 (hGal-3) is 6.40; at human Gal-1 (hGal-1) it was 5.61.
For `CO[C@@H]1[C@@H](n2cc(-c3cc(F)c(F)c(F)c3)nn2)[C@@H](O)[C@@H](CO)O[C@@H]1Cc1cc(C2CCN(S(=O)(=NC(C)C)C(C)C)CC2)on1` (stereo partly shown) [Ex 1.197], in that order: 6.96 and 5.66.
As to `CCOC(=O)N1CCC(c2cc(C[C@H]3O[C@H](CO)[C@H](O)[C@H](n4cc(-c5ccc(Br)c(F)c5F)nn4)[C@H]3OC)no2)CC1` [Ex 1.198], the pIC50 is 7.33 at human Gal-3 (hGal-3) and 5.44 at human Gal-1 (hGal-1).
As to `CCOC(=O)N1CCC(c2cc(C[C@H]3O[C@H](CO)[C@H](O)[C@H](n4cc(-c5cc(F)c(Cl)c(F)c5)nn4)[C@H]3OC)no2)CC1` [Ex 1.199], the figures for the pIC50 on human Gal-3 (hGal-3) and at human Gal-1 (hGal-1) were 7.28 and 5.22, respectively.
For `CCOC(=O)N1CCC(c2cc(C[C@H]3O[C@H](CO)[C@H](O)[C@H](n4cc(-c5cc(F)cc(Cl)c5)nn4)[C@H]3OC)no2)CC1` [Ex 1.200], in that order: 6.92 and 5.82.
The matching figures for `CCOC(=O)N1CCC(c2cc(C[C@H]3O[C@H](CO)[C@H](O)[C@H](n4cc(-c5ccc(C)c(F)c5)nn4)[C@H]3OC)no2)CC1` [Ex 1.201]: 7.17 and 5.53.
On to `CCOC(=O)N1CCC(c2cc(C[C@H]3O[C@H](CO)[C@H](O)[C@H](n4cc(-c5cc(F)c(C)c(F)c5)nn4)[C@H]3OC)no2)CC1` [Ex 1.202], for which the negative-log IC50 (pIC50) at human Gal-3 (hGal-3) was 7.48; on human Gal-1 (hGal-1) it was 5.40.
For `CCOC(=O)N1CCC(c2cc(C[C@H]3O[C@H](CO)[C@H](O)[C@H](n4cc(-c5ccc(Cl)c(F)c5F)nn4)[C@H]3OC)no2)CC1` [Ex 1.203], in that order: 7.59 and 5.75.
The matching figures for `CC(=O)O[C@@H]1[C@@H](n2cc(-c3ccc(C)c(F)c3F)nn2)[C@@H](O)[C@@H](CO)O[C@@H]1Cc1cc(C(C)(C)C)on1` [Ex 1.204]: 7.39 and 4.76.
For `Cc1ccc(-c2cn([C@H]3[C@@H](O)[C@@H](CO)O[C@H](Cc4cc(C(C)(C)C)on4)[C@@H]3O)nn2)c(F)c1F` [Ex 1.205], in that order: 7.39 and 5.05.
As to `CO[C@@H]1[C@@H](n2cc(-c3cc(F)c(F)c(F)c3)nn2)[C@@H](O)[C@@H](CO)O[C@@H]1Cc1cc(C(C)(C)C)no1` [Ex 1.206], the pIC50 on human Gal-3 (hGal-3) was 7.08; at human Gal-1 (hGal-1), 5.87.
Turning to `CO[C@@H]1[C@@H](n2cc(-c3cc(F)c(F)c(F)c3)nn2)[C@@H](O)[C@@H](CO)O[C@@H]1Cc1cc(C(C)(C)CO)no1` [Ex 1.207], the pIC50 on human Gal-3 (hGal-3) is 6.96; on human Gal-1 (hGal-1) it was 5.94.
The matching figures for `CCOC(=O)CC(C)(C)c1cc(C[C@H]2O[C@H](CO)[C@H](O)[C@H](n3cc(-c4cc(F)c(F)c(F)c4)nn3)[C@H]2OC)on1` [Ex 1.208]: 6.89 and 5.79.
For `CO[C@@H]1[C@@H](n2cc(-c3cc(F)c(F)c(F)c3)nn2)[C@@H](O)[C@@H](CO)O[C@@H]1Cc1cc(C2(OC)CCCC2)no1` [Ex 1.209], in that order: 6.59 and 5.44.
For `CO[C@@H]1[C@@H](n2cc(-c3cc(F)c(F)c(F)c3)nn2)[C@@H](O)[C@@H](CO)O[C@@H]1Cc1cc(C2(OC)CCCCC2)no1` [Ex 1.210], in that order: 6.54 and 5.56.
On to `CO[C@@H]1[C@@H](n2cc(-c3cc(F)c(F)c(F)c3)nn2)[C@@H](O)[C@@H](CO)O[C@@H]1Cc1cc(C2(C)COC2)no1` [Ex 1.211], for which the pIC50 on human Gal-3 (hGal-3) is 7.03; on human Gal-1 (hGal-1), 6.35.
The matching figures for `CCC1(c2cc(C[C@H]3O[C@H](CO)[C@H](O)[C@H](n4cc(-c5cc(F)c(F)c(F)c5)nn4)[C@H]3OC)on2)COC1` [Ex 1.212]: 6.80 and 5.80.
For `CO[C@@H]1[C@@H](n2cc(-c3cc(F)c(F)c(F)c3)nn2)[C@@H](O)[C@@H](CO)O[C@@H]1Cc1cc(C2(F)CC2)no1` [Ex 1.213], in that order: 6.80 and 5.81.
For `CO[C@@H]1[C@@H](n2cc(-c3cc(F)c(F)c(F)c3)nn2)[C@@H](O)[C@@H](CO)O[C@@H]1Cc1cc(C2(C(F)F)CC2)no1` [Ex 1.214], in that order: 6.89 and 6.04.
For `CO[C@@H]1[C@@H](n2cc(-c3cc(F)c(F)c(F)c3)nn2)[C@@H](O)[C@@H](CO)O[C@@H]1Cc1cc(C2(C)CC2)no1` [Ex 1.215], the pIC50 is 7.00 on human Gal-3 (hGal-3) and 6.21 on human Gal-1 (hGal-1).
For `CO[C@@H]1[C@@H](n2cc(-c3cc(F)c(F)c(F)c3)nn2)[C@@H](O)[C@@H](CO)O[C@@H]1Cc1cc(C(C)(C)NC(=O)OC(C)(C)C)no1` [Ex 1.216], in that order: 6.47 and 5.40.
`CO[C@@H]1[C@@H](n2cc(-c3cc(F)c(F)c(F)c3)nn2)[C@@H](O)[C@@H](CO)O[C@@H]1Cc1cc(C(C)(C)N)no1` [Ex 1.217]: the figures for the pIC50 on human Gal-3 (hGal-3) and on human Gal-1 (hGal-1) were 6.74 and 5.69, respectively.
For `CO[C@@H]1[C@@H](n2cc(-c3cc(F)c(F)c(Cl)c3)nn2)[C@@H](O)[C@@H](CO)O[C@@H]1Cc1cc(C2CCCCC2)on1` [Ex 1.218], in that order: 6.38 and 4.97.
For `CO[C@@H]1[C@@H](n2cc(-c3cc(F)c(F)c(Cl)c3)nn2)[C@@H](O)[C@@H](CO)O[C@@H]1Cc1cc(C2CCN(C(C)=O)CC2)on1` [Ex 1.219], in that order: 7.64 and 6.37.
For `CCOC(=O)N1CCC(c2cc(C[C@H]3O[C@H](CO)[C@H](O)[C@H](n4cc(-c5cc(F)c(F)c(Cl)c5)nn4)[C@H]3OC)no2)CC1` [Ex 1.220], in that order: 7.46 and 6.24.
Turning to `CO[C@@H]1[C@@H](n2cc(-c3cc(F)c(F)c(Cl)c3)nn2)[C@@H](O)[C@@H](CO)O[C@@H]1Cc1cc(C(C)(C)C)on1` [Ex 1.221], the results for the pIC50 on human Gal-3 (hGal-3) and at human Gal-1 (hGal-1) were 6.80 and 6.01, respectively.
Take `CO[C@@H]1[C@@H](n2cc(-c3cc(F)c(F)c(F)c3)nn2)[C@@H](O)[C@@H](CO)O[C@@H]1Cc1cc(C2CCCC2)no1` [Ex 1.222]: the pIC50 at human Gal-3 (hGal-3) was 6.96; on human Gal-1 (hGal-1), 5.10.

The record behind these values is patent publication US12319672B2, “Alpha-D-galactopyranoside derivatives” (Idorsia Pharmaceuticals Ltd, priority 2019, dated 2025).
